# Results: patent US11254722B2, “Recombinant proteins and uses thereof” (ACADEMIA SINICA, priority 2017, dated 2022)
# Tests used:
# [1] = system: MCF-7 breast cancer cells; experiment: MCF-7 proliferation assay; assay type: cell-based
# Summary of the method: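 MCF-7 cells seeded at 1,000–6,000/well in serum-free DMEM/F12 with 0.2% BSA and 10 ug/ml transferrin; proliferation induced by growth factors (IGF-1, IGF-2, EGF, TGF-a, Nrgbx, b-FGF, amphiregulin); test chimeras added at plating or 16–20 h later. Growth read after 3–4 days by Alamar blue fluorescence (544/590 nm, 4–6 h).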
# hep3B cells = experiment: hep3B proliferation assay; assay type: cell-based, human; conditions: hep3B
# Summary of the method: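 Cells seeded at 1,000 to 6,000 per well in DMEM/F12 with 0.2% BSA and 10 ug/ml transferrin. Inhibitors added 16-20 h after plating; IGF-1 or other growth factors at plating or 16-20 h later. After 3 to 4 days, growth read by Alamar blue fluorescence at 544/590 nm after 4 to 6 h.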
# [2] = Pharmacokinetics in mice, serum by Fc ELISA; assay type: in vivo
# Procedure: Grenier high binding ELISA plates were coated with 1 ug/ml goat anti-human Fc antibody (Jackson Immunoresearch) in PBS overnight, and then blocked with Assay Buffer (Invitrogen). Plates were incubated for 2 hours with Chimera or human Fc (Jackson Immunoresearch) as standard; followed by HRP-conjugated anti-human Fc antibody (Jackson Immunoresearch) for 60 minutes. HRP substrate, tetramethyl benzidine, was added; the reaction was stopped with 2 N […], and then the plate was read at 450 nm.
# Mice were injected subcutaneously with 100 ug chimera 56662 (4 mg/kg). Two mice per group were used. Serum samples were taken at 0, 4, 24, 48, 72 hours after injection. The concentration of 56662 in serum was determined by use of the hu fc ELISA.
# Serum half-life was measured in mice. 100 μg IGFBP3-Fc or 56662 (4 mg/kg) was injected subcutaneously and mouse serum was harvested at 0, 4, 24, 48, 72 hours after injection. Chimera concentration in serum was measured with the Fc ELISA. At 24 hours, the concentration of 56662 was over 2 μg/ml (FIG. 28), and the serum half-time was estimated to be about 43 hours.
substance,measurement,setting,value
"56662: IGFBP3-Fc, SEQ ID NO: 7; unmodified IGFBP3 fused with the IgG Fc portion [compound 56662]","In vitro inhibition of proliferation, EGF","[1]; EGF-induced, MCF-7 cells",yes
same,"In vitro inhibition of proliferation, IGF-1","[1]; IGF-1-induced, MCF-7 cells",yes
same,"In vitro inhibition of proliferation, IGF-2","[1]; IGF-2-induced, MCF-7 cells",yes
same,"In vitro inhibition of proliferation, TGF-α","[1]; TGF-α-induced, MCF-7 cells",yes
same,"In vitro inhibition of proliferation, VEGF-165","[1]; VEGF-165, MCF-7 cells per footnote",no
same,"In vitro inhibition of proliferation, bFGF","[1]; bFGF-induced, MCF-7 cells",yes
same,inhibition of FBS-induced proliferation of MCF-7,"[1]; fetal bovine serum, FIG. 1, FIG. 4",inhibited
same,inhibition of proliferation induced by long-R3-IGF-1,"[1]; high concentrations of 56662, FIG. 2",can inhibit
same,"In vitro inhibition of proliferation, neuregulin","[1]; neuregulin-induced, MCF-7 cells",yes
same,"In vitro inhibition of proliferation, HGF",hep3B cells; HGF-induced,"yes (hep3B, HUVEC)"
same,EC50,"hep3B cells; FIG. 11C, read-out: ECK for FBS-induced proliferation",201 nM
same,serum half-life,[2]; estimated,20 to 40 h
same,concentration in serum at 24 hours,"[2]; mice, 100 μg (4 mg/kg) subcutaneously, FIG. 28",over 2 μg/ml
same,serum half-time,"[2]; mice, 100 μg (4 mg/kg) subcutaneously, estimated",about 43 hours
